Blank lines part the entries; values can stand above or below the compound they belong to.
How the values were obtained:
[1] = Stability in mouse serum (HPLC of extracts); assay type: in vitro ADME; settings: up to 24 h, ambient temperature or 37° C.
Method: (§1) Incubations: into a solution (1980 μL) of serum (mouse, human), buffer or cells media, a sample of (17a), (185-390 kBq) in 15-20 μL of 25% EtOH/PB (100 mM, pH 6.1) was added; the resulting mixture was briefly vortexed and kept (up to 24 h) at ambient temperature or inside the incubator (37° C./˜5% CO2). At each time point, a volume of 1 mL was withdrawn, the extract of sample prepared and analyzed by HPLC.
(§2) Preparation of extracts: a sample (1 mL) from each incubated mixture with compound (17a) was treated with MeCN (1 mL), vortexed, and centrifuged (2,000 rpm, 15 min). The supernatant was removed and the radioactivity measured. Aliquots of supernatant (250-500 μL) were acidified to pH˜6 with 0.05 N TFA (2-8 μL). The excess of MeCN was evaporated with a stream of nitrogen and water (100 μL) added. A mixture was passed through a 0.2μ filter and each sample (˜100 μL, 95-185 kBq) injected on HPLC system.
(§3) HPLC analysis of extracts: continued on Columbus C18 100 Å (5 μm, 4.6×250 mm) column; eluted at 0.8 mL/min with a linear gradient of MeCN from 0 to 95% over 60 min and 95% MeCN was kept for a period of further 20 min, detecting the radioactivity (Bioscan NaI(T)). Both solvents contained 0.07% TFA (v/v).

[2] = Stability in human serum (HPLC of extracts); assay type: in vitro ADME; settings: up to 24 h, ambient temperature or 37° C.
Method: as §1, §2, §3

[3] = cited from earlier work
[4] = test system: SK-N-SH NB cells; experiment: Subcellular distribution of 125I in SK-N-SH NB cells; assay type: cell-based, human; settings: SK-N-SH NB cells exposed at 80 kBq/mL for 1 h, harvested 24 h later
Excerpt: (§4) Conjugate 17b was used for further testing. […] All drugs were designed so that they produce either 5-radioiodo-2′-deoxyuridine [RIUdR] or its 5′-monophosphate. Both metabolites can participate in the DNA synthesis allowing deposits of high LET radiation directly within the DNA structure. RIUdR, incorporated into the DNA of cancer cells in place of thymidine, is retained there for the life of the cell. It is extraordinarily lethal when labeled with Auger-electron-emitting radioiodines, which produce a cascade of monoenergetic electrons known as conversion and Auger electrons. These electrons deposit their energy within a tiny sphere around the decaying atom, i.e., the effective distance of Auger electrons is less than the diameter of the cancer cell nucleus. As a result, their cytotoxicity is dependent on the intranuclear localization, i.e., within the DNA or immediate vicinity of the DNA. Radiotoxicity of several reagents was tested in SK-N-SH cells. Tested drugs eradicate NB cells more efficiently than MIBG.

[5] = test system: human NB SK-N-SH cells; experiment: Radiotoxicity, clonogenic assay in SK-N-SH cells; assay type: cell-based
Excerpt: as §4
FIG. 14A-C show results of a pilot radiotoxicity study comparing the reproductive integrity of colonies of human NB SK-N-SH cells treated with conjugate 17b (radiolabeled with ^125I) and ^125IMIBG at 37 kBq/mL, two weeks after treatment.

[6] = test system: SK-N-SH cells; experiment: Uptake by SK-N-SH cells competed by MIBG; assay type: cell-based, human; settings: competition with MIBG (FIG. 16)

stability in mouse serum [1]: limited
stability in human serum [2]: limited
Compound: N=C(N)NCCC(=O)OC[C@H]1O[C@@H](n2cc([125I])c(=O)[nH]c2=O)C[C@@H]1O [17a, 5-[^125I]-Iodo-5′-O-propionylguanidino-2′-deoxyuridine]

Compound: N=C(N)NCc1cccc([131I])c1 [^131IMIBG, ^131I-metaiodobenzylguanidine]
long-term survivors developing thyroid disorders ([3]; long-term survivors treated with 131IMIBG): over 80%
maximum tolerated dose ([3]; patients with neuroblastoma): > 600 MBq/kg

Compound: N=C(N)NCCCCCC(=O)OC[C@H]1O[C@@H](n2cc([125I])c(=O)[nH]c2=O)C[C@@H]1O [conjugate 17b, 5-[^125I]-Iodo-5′-O-hexanoylguanidino-2′-deoxyuridine]
subcellular distribution of 125I [4]: All ^125I is associated with the DNA fraction
retention within the cell [5]: trapped within the cell
radiotoxicity (reproductive integrity of colonies) ([5]; 37 kBq/mL, two weeks after treatment, compared with 125IMIBG): far more radiotoxic
cells receiving a lethal dose of radiation, clonogenic assay ([5]; 1 h with the drug, compared with 125IMIBG): more cells receive a lethal dose of radiation
uptake by SK-N-SH cells [6]: competed by MIBG
